# Assays:
# [1] = system: duck salad; assay: Test B flood test duck salad; assay type: in vivo, Heteranthera limosa
# Method in brief: (§1)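 Flood test on plants grown to the 2-leaf stage; treated plants kept in greenhouse twelve to sixteen days, then visually rated against controls on a 0 (no effect) to 10 (complete control) scale.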
# [2] = system: soybean; assay: Test B pre/postemergence soybean; assay type: in vivo, Glycine max
# Method in brief: (§2)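 Herbicidal effect was estimated by eye on a ten-point control scale after plants spent twelve to sixteen days in a greenhouse following soil or foliar treatment. Foliar sprays targeted plants at one to four leaves; all doses were formulated in a non-phytotoxic solvent with surfactant.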
# [3] = system: bamyardgrass; assay: Test B flood test barnyardgrass; assay type: in vivo, Echinochloa crus-galli
# Method in brief: as §1
# [4] = system: crabgrass; assay: Test B pre/postemergence crabgrass; assay type: in vivo, Digitaria sanguinalis
# Method in brief: as §2
# [5] = system: blackgrass; assay: Test B pre/postemergence blackgrass; assay type: in vivo, Alopecurus myosuroides
# Method in brief: as §2
# [6] = system: velvetleaf; assay: Test B pre/postemergence velvetleaf; assay type: in vivo, Abutilon theophrasti
# Method in brief: as §2
# [7] = system: morningglory; assay: Test B pre/postemergence morningglory; assay type: in vivo, Ipomoea hederacea
# Method in brief: as §2
# [8] = system: giant foxtail; assay: Test B pre/postemergence giant foxtail; assay type: in vivo, Setaria faberii
# Method in brief: as §2
# [9] = system: wild oat; assay: Test B pre/postemergence wild oat; assay type: in vivo, Avena fatua
# Method in brief: as §2
# [10] = system: corn; assay: Test B pre/postemergence corn; assay type: in vivo, Zea mays
# Method in brief: as §2
# [11] = system: rice; assay: Test B flood test rice; assay type: in vivo, Oryza sativa
# Method in brief: as §1
# [12] = system: smallflower flatsedge; assay: Test B flood test smallflower flatsedge; assay type: in vivo, Cyperus difformis
# Method in brief: as §1
# [13] = system: bedstraw; assay: Test B pre/postemergence bedstraw; assay type: in vivo, Galium aparine
# Method in brief: as §2
# [14] = system: purple nutsedge; assay: Test B pre/postemergence purple nutsedge; assay type: in vivo, Cyperus rotundus; conditions: Postemergence
# Method in brief: as §2
# [15] = system: surinam grass; assay: Test B pre/postemergence surinam grass; assay type: in vivo, Brachiaria decumbens
# Method in brief: as §2
# [16] = system: wheat; assay: Test B pre/postemergence wheat; assay type: in vivo, Triticum aestivum
# Method in brief: as §2
# [17] = system: cocklebur; assay: Test B pre/postemergence cocklebur; assay type: in vivo, Xanthium strumarium
# Method in brief: as §2
# [18] = Rate 62 g/ha, headed Pre-emergence (flood test species), scale 0 to 10 (0 no effect, 10 complete control)
# [19] = Rate 125 g/ha, Pre-emergence, flood test species, scale 0 to 10 where 0 is no effect and 10 is complete control
# [20] = Rate 250 g/ha, Pre-emergence, flood-test species, scale 0 to 10, 0 is no effect, 10 is complete control
# [21] = Rate 500 g/ha, headed Pre-emergence (flood test species), scale 0 to 10 (0 no effect, 10 complete control)
# [22] = Preemergence, Rate 62 g/ha, scale of 0 to 10 where 0 is no effect and 10 is complete control
# [23] = Preemergence, Rate 125 g/ha, 0 is no effect, 10 is complete control
# [24] = Preemergence, Rate 250 g/ha, scale 0 to 10, 0 is no effect, 10 is complete control
# [25] = Preemergence, Rate 500 g/ha, scale of 0 to 10 where 0 is no effect and 10 is complete control
# [26] = Rate 62 g/ha, Postemergence, scale of 0 to 10 where 0 is no effect and 10 is complete control
# [27] = Rate 125 g/ha, Postemergence, scale 0 to 10
# [28] = Rate 500 g/ha, Postemergence, scale 0 to 10
compound,measurement,setting,value
Cc1ccccc1-n1c(=O)on(C(=O)N(c2ccc(Cl)cc2F)C(C)C)c1=O [Compound 195],Ducksalad plant response rating,[1]; [18],0
same,Ducksalad plant response rating,[1]; [19],0
same,Ducksalad plant response rating,[1]; [20],0
same,"Plant response rating, Ducksalad",[1]; [21],0
same,Soybean plant response rating,[2]; [22],0
same,Soybean plant response rating (0 to 10 scale),[2]; [23],0
same,Soybean plant response rating,[2]; [24],0
same,"Plant response rating, Soybean",[2]; [25],0
same,Soybean plant response rating,[2]; [26],2
same,Soybean plant response rating,[2]; [27],3
same,"Plant response rating (0 to 10; 0 is no effect, 10 is complete control), Soybean","[2]; Rate 250 g/ha, Postemergence",4
same,Soybean plant response rating,[2]; [28],5
same,Barnyardgrass plant response rating,[3]; [18],0
same,Barnyardgrass plant response rating,[3]; [19],0
same,Barnyardgrass plant response rating,[3]; [20],0
same,"Plant response rating, Barnyardgrass",[3]; [21],0
same,Crabgrass plant response rating,[4]; [22],3
same,Crabgrass plant response rating (0 to 10 scale),[4]; [23],4
same,Crabgrass plant response rating,[4]; [24],5
same,"Plant response rating, Crabgrass",[4]; [25],9
same,Crabgrass plant response rating,[4]; [26],0
same,Crabgrass plant response rating,[4]; [27],0
same,"Plant response rating (0 to 10; 0 is no effect, 10 is complete control), Crabgrass","[4]; Rate 250 g/ha, Postemergence",2
same,Crabgrass plant response rating,[4]; [28],5
same,Blackgrass plant response rating,[5]; [22],0
same,Blackgrass plant response rating (0 to 10 scale),[5]; [23],1
same,Blackgrass plant response rating,[5]; [24],3
same,"Plant response rating, Blackgrass",[5]; [25],6
same,Blackgrass plant response rating,[5]; [26],0
same,Blackgrass plant response rating,[5]; [27],3
same,"Plant response rating (0 to 10; 0 is no effect, 10 is complete control), Blackgrass","[5]; Rate 250 g/ha, Postemergence",5
same,Blackgrass plant response rating,[5]; [28],6
same,Velvetleaf plant response rating,[6]; [22],0
same,Velvetleaf plant response rating,[6]; [24],0
same,"Plant response rating, Velvetleaf",[6]; [25],0
same,Velvetleaf plant response rating,[6]; [26],0
same,Velvetleaf plant response rating,[6]; [27],0
same,"Plant response rating (0 to 10; 0 is no effect, 10 is complete control), Velvetleaf","[6]; Rate 250 g/ha, Postemergence",2
same,Morningglory plant response rating,[7]; [22],0
same,Morningglory plant response rating (0 to 10 scale),[7]; [23],0
same,Morningglory plant response rating,[7]; [24],0
same,"Plant response rating, Morningglory",[7]; [25],0
same,Morningglory plant response rating,[7]; [26],0
same,Morningglory plant response rating,[7]; [27],0
same,"Plant response rating (0 to 10; 0 is no effect, 10 is complete control), Morningglory","[7]; Rate 250 g/ha, Postemergence",1
same,Morningglory plant response rating,[7]; [28],3
same,Giant foxtail plant response rating,[8]; [22],3
same,Giant foxtail plant response rating (0 to 10 scale),[8]; [23],3
same,Giant foxtail plant response rating,[8]; [24],8
same,"Plant response rating, Giant foxtail",[8]; [25],10
same,Giant foxtail plant response rating,[8]; [26],0
same,Giant foxtail plant response rating,[8]; [27],0
same,"Plant response rating (0 to 10; 0 is no effect, 10 is complete control), Giant foxtail","[8]; Rate 250 g/ha, Postemergence",1
same,Giant foxtail plant response rating,[8]; [28],3
same,Wild oats plant response rating,[9]; [22],0
same,Wild oats plant response rating,[9]; [24],0
same,"Plant response rating, Wild oats",[9]; [25],4
same,Wild oats plant response rating,[9]; [26],0
same,Wild oats plant response rating,[9]; [27],0
same,"Plant response rating (0 to 10; 0 is no effect, 10 is complete control), Wild oats","[9]; Rate 250 g/ha, Postemergence",0
same,Corn plant response rating,[10]; [22],0
same,Corn plant response rating (0 to 10 scale),[10]; [23],0
same,Corn plant response rating,[10]; [24],0
same,"Plant response rating, Corn",[10]; [25],0
same,Corn plant response rating,[10]; [26],0
same,Corn plant response rating,[10]; [27],0
same,"Plant response rating (0 to 10; 0 is no effect, 10 is complete control), Corn","[10]; Rate 250 g/ha, Postemergence",0
same,Corn plant response rating,[10]; [28],0
same,Rice plant response rating,[11]; [18],0
same,Rice plant response rating,[11]; [19],0
same,Rice plant response rating,[11]; [20],0
same,"Plant response rating, Rice",[11]; [21],0
same,S. Flatsedge plant response rating,[12]; [18],0
same,S. Flatsedge plant response rating,[12]; [19],0
same,S. Flatsedge plant response rating,[12]; [20],0
same,S. Flatsedge plant response rating,"[12]; Rate 500 g/ha, Pre-emergence, flood test species, scale 0 to 10 (0 no effect, 10 complete control)",0
same,Bedstraw plant response rating,[13]; [22],0
same,Bedstraw plant response rating (0 to 10 scale),[13]; [23],0
same,Bedstraw plant response rating,[13]; [24],0
same,"Plant response rating, Bedstraw",[13]; [25],2
same,Bedstraw plant response rating,[13]; [26],2
same,Bedstraw plant response rating,[13]; [27],2
same,Bedstraw plant response rating,[13]; [28],7
same,Nutsedge plant response rating,"[14]; Rate 62 g/ha, scale of 0 to 10 where 0 is no effect and 10 is complete control",0
same,Nutsedge plant response rating,"[14]; Rate 125 g/ha, scale 0 to 10",0
same,"Plant response rating (0 to 10; 0 is no effect, 10 is complete control), Nutsedge",[14]; Rate 250 g/ha,0
same,Nutsedge plant response rating,"[14]; Rate 500 g/ha, scale 0 to 10",0
same,B. signalgrass plant response rating,[15]; [22],0
same,B. signalgrass plant response rating (0 to 10 scale),[15]; [23],0
same,B. signalgrass plant response rating,[15]; [24],1
same,"Plant response rating, B. signalgrass",[15]; [25],6
same,B. signalgrass plant response rating,[15]; [26],0
same,B. signalgrass plant response rating,"[15]; Rate 125 g/ha, Postemergence, scale 0 (no effect) to 10 (complete control)",0
same,"Plant response rating, B. signalgrass","[15]; Rate 250 g/ha, Postemergence, scale 0 to 10, 0 is no effect, 10 is complete control",0
same,B. signalgrass plant response rating,"[15]; Rate 500 g/ha, Postemergence, scale 0 to 10, 0 no effect, 10 complete control",1
same,Wheat plant response rating,[16]; [22],0
same,Wheat plant response rating,[16]; [24],0
same,"Plant response rating, Wheat",[16]; [25],0
same,Wheat plant response rating,[16]; [26],0
same,Wheat plant response rating,[16]; [27],0
same,"Plant response rating (0 to 10; 0 is no effect, 10 is complete control), Wheat","[16]; Rate 250 g/ha, Postemergence",0
same,Cocklebur plant response rating,[17]; [22],0
same,Cocklebur plant response rating (0 to 10 scale),[17]; [23],0
same,Cocklebur plant response rating,[17]; [24],0
same,"Plant response rating, Cocklebur",[17]; [25],0
same,Cocklebur plant response rating,[17]; [26],0
same,Cocklebur plant response rating,[17]; [27],2
same,"Plant response rating (0 to 10; 0 is no effect, 10 is complete control), Cocklebur","[17]; Rate 250 g/ha, Postemergence",2
same,Cocklebur plant response rating,[17]; [28],2

# Source: patent US6737383B1, “Herbicidal oxadiazolidines” (priority 1999, dated 2004)
